Experimental findings from ChEMBL document CHEMBL3400038, “Synthesis and evaluation of benzosuberone embedded with 1,3,4-oxadiazole, 1,3,4-thiadiazole and 1,2,4-triazole moieties as new potential anti proliferative agents” (2015) are described below.

Structures are written as SMILES.

Holding throughout (type): functional
One experiment deals with MDA-MB-231. Nature of the experiment: Antiproliferative activity against human MDA-MB-231 cells after 48 hrs by SRB assay. Particulars: MDA-MB-231, 48 h. On the technique in general: The SRB assay estimates cell density from bound dye.
The test system of the next experiment is A549. In words: Antiproliferative activity against human A549 cells after 48 hrs by SRB assay. Particulars: A549, 48 h.
Experiment [1] is described as follows: Antiproliferative activity against human PANC1 cells after 48 hrs by SRB assay. Particulars: PANC-1, 48 h.
For the next experiment, the system named is HeLa. Nature of the experiment: Antiproliferative activity against human HeLa cells after 48 hrs by SRB assay.

The GI50 is the concentration giving 50% growth inhibition. Low values mean greater sensitivity of the cells, high ones lower sensitivity of the cells. For `Cc1cc2c(cc1C)C(Cl)=C(c1nnc(-c3ccc(F)cc3)o1)CCC2`, the GI50 was determined as 1400 nM in the experiment on MDA-MB-231, 2810 nM in the experiment with A549, 520 nM in experiment [1] and 6420 nM in the experiment on HeLa.
Take `Cc1cc2c(cc1C)C(Cl)=C(c1nnc(-c3cccc(Cl)c3)o1)CCC2`: the concentration for 50% growth inhibition (GI50) is 3310 nM in the experiment on MDA-MB-231, 1970 nM in the experiment on A549, 4570 nM in experiment [1] and 5940 nM in the experiment on HeLa.
Take `Cc1cc2c(cc1C)C(Cl)=C(c1nnc(-c3cccc(I)c3)o1)CCC2`: the GI50 with MDA-MB-231 came out at 2670 nM; in the experiment with A549, 2780 nM; in experiment [1], 4120 nM; with HeLa, 4460 nM.
Turning to `Cc1cc2c(cc1C)C(Cl)=C(c1nnc(-c3cccc(C(F)(F)F)c3)o1)CCC2`, the concentration for 50% growth inhibition (GI50) in the experiment with MDA-MB-231 amounted to 2460 nM; with A549, 1970 nM; in experiment [1], 794 nM; with HeLa it was 1570 nM.
For the molecule `Cc1cc2c(cc1C)C(Cl)=C(c1nnc(-c3ccccc3)o1)CCC2`, the GI50 in the experiment with MDA-MB-231 is 2760 nM; in the experiment on A549, 1960 nM; in experiment [1], 4120 nM; in the experiment with HeLa, 4680 nM.
Regarding `Cc1ccc(-c2nnc(C3=C(Cl)c4cc(C)c(C)cc4CCC3)o2)cc1`, the 50% growth inhibitory concentration (GI50) in the experiment on MDA-MB-231 is 1760 nM; in the experiment with A549, 2470 nM; in experiment [1] it was 3880 nM; with HeLa, 679 nM.
The corresponding values for `COc1cc(-c2nnc(C3=C(Cl)c4cc(C)c(C)cc4CCC3)o2)cc(OC)c1OC` are 956 nM, 1260 nM, 1880 nM and 562 nM.
The matching figures for `COc1ccc([N+](=O)[O-])c(-c2nnc(C3=C(Cl)c4cc(C)c(C)cc4CCC3)o2)c1OC`: 1160 nM, 871 nM, 957 nM and 310 nM.
Take `Cc1ccc(-c2nnc(C3=C(Cl)c4ccccc4CCC3)o2)cc1`: the GI50 in the experiment with MDA-MB-231 was 1400 nM; in the experiment with A549, 3420 nM; in experiment [1], 6810 nM; in the experiment on HeLa it was 79 nM.
For `COc1cc(-c2nnc(C3=C(Cl)c4ccccc4CCC3)o2)cc(OC)c1OC`, the GI50 in the experiment with MDA-MB-231 worked out at 3320 nM; in the experiment on A549 it was 4570 nM; in experiment [1], 729 nM; with HeLa it was 1730 nM.
Consider `O=[N+]([O-])c1ccc(-c2nnc(C3=C(Cl)c4ccccc4CCC3)o2)cc1`, for which the GI50 worked out at 3280 nM in the experiment with MDA-MB-231, 2610 nM with A549, 3980 nM in experiment [1] and 1320 nM in the experiment on HeLa.
On to `COc1ccc([N+](=O)[O-])c(-c2nnc(C3=C(Cl)c4ccccc4CCC3)o2)c1OC`, for which the concentration for 50% growth inhibition (GI50) in the experiment with MDA-MB-231 is 8280 nM; with A549, 5360 nM; in experiment [1], 7230 nM; in the experiment on HeLa it was 2830 nM.
On to `ClC1=C(c2nnc(-c3cccc(I)c3)o2)CCCc2ccccc21`, for which the GI50 with MDA-MB-231 is 4940 nM; in the experiment on A549, 2560 nM; in experiment [1], 2370 nM; in the experiment with HeLa it was 4100 nM.
Take `Cc1cc2c(cc1C)C(Cl)=C(c1nnc(Nc3ccccc3)s1)CCC2`: the GI50 in the experiment on MDA-MB-231 was 5780 nM; with A549, 4780 nM; in experiment [1] it was 3660 nM; with HeLa it was 4920 nM.
The matching figures for `S=c1[nH]nc(C2=C(Cl)c3ccccc3CCC2)o1`: 1010 nM, 4960 nM, 3430 nM and 981 nM.
Regarding `Cc1cc2c(cc1C)C(Cl)=C(c1n[nH]c(=S)o1)CCC2`, the GI50 is 918 nM in the experiment on MDA-MB-231, 3270 nM with A549, 2460 nM in experiment [1] and 4440 nM in the experiment with HeLa.
Regarding `ClC1=C(c2nnc(-c3ccccc3)o2)CCCc2ccccc21`, the 50% growth inhibitory concentration (GI50) with MDA-MB-231 came out at 1970 nM; with A549, 2270 nM; in experiment [1], 675 nM; in the experiment on HeLa, 3220 nM.
Turning to `O=C(NNC(=S)Nc1ccccc1)C1=C(Cl)c2ccccc2CCC1`, the GI50 with MDA-MB-231 came to 2460 nM; in the experiment on A549, 4880 nM; in experiment [1], 5850 nM; in the experiment on HeLa, 3870 nM.
In the case of `Cc1cc2c(cc1C)C(Cl)=C(C(=O)NNC(=S)Nc1ccccc1)CCC2`, the 50% growth inhibitory concentration (GI50) in the experiment with MDA-MB-231 is 3140 nM; in the experiment with A549, 759 nM; in experiment [1], 928 nM; in the experiment with HeLa, 471 nM.
`Sc1nnc(C2=C(Cl)c3ccccc3CCC2)n1-c1ccccc1`: the concentration for 50% growth inhibition (GI50) turned out to be 4930 nM in the experiment with MDA-MB-231, 3490 nM in the experiment with A549, 3510 nM in experiment [1] and 5500 nM in the experiment on HeLa.
Regarding `Cc1cc2c(cc1C)C(Cl)=C(c1nnc(S)n1-c1ccccc1)CCC2`, the GI50 in the experiment with MDA-MB-231 is 2640 nM; in the experiment with A549, 1490 nM; in experiment [1], 2650 nM; in the experiment on HeLa, 1160 nM.
The matching figures for `ClC1=C(c2nnc(Nc3ccccc3)s2)CCCc2ccccc21`: 947 nM, 2350 nM, 158 nM and 1320 nM.
`COc1cc2c(c(OC)c1OC)-c1ccc(OC)c(=O)cc1[C@@H](NC(C)=O)CC2` [COLCHICINE]: the 50% growth inhibitory concentration (GI50) in the experiment with MDA-MB-231 was under 10 nM; in the experiment with A549, 30 nM; in experiment [1], 10 nM; with HeLa, 40 nM.
Turning to `COc1ccc(C[C@@H](O)c2cc(OC)c(OC)c(OC)c2)cc1O` [COMBRETASTATIN], the GI50 with MDA-MB-231 amounted to 19 nM; in the experiment with A549, 10 nM; in experiment [1], 20 nM; in the experiment on HeLa it was 10 nM.
Take `COc1cccc2c1C(=O)c1c(O)c3c(c(O)c1C2=O)C[C@@](O)(C(=O)CO)C[C@@H]3O[C@H]1C[C@H](N)[C@H](O)[C@H](C)O1` [DOXORUBICIN]: the GI50 in the experiment on MDA-MB-231 was 20 nM; in the experiment on A549, under 10 nM; in experiment [1], under 10 nM; in the experiment on HeLa, under 10 nM.
As to `COC(=O)Nc1nc2cc(C(=O)c3cccs3)ccc2[nH]1` [NOCODAZOLE], the GI50 in the experiment with MDA-MB-231 is 17 nM; in the experiment with A549, 20 nM; in experiment [1], under 10 nM; in the experiment on HeLa it was 15 nM.
Turning to `CC(=O)O[C@H]1C(=O)[C@@]2(C)[C@H]([C@H](OC(=O)c3ccccc3)[C@]3(O)C[C@H](OC(=O)[C@H](O)[C@@H](NC(=O)c4ccccc4)c4ccccc4)C(C)=C1C3(C)C)[C@]1(OC(C)=O)CO[C@@H]1C[C@@H]2O` [PACLITAXEL], the GI50 in the experiment with MDA-MB-231 is under 10 nM; in the experiment on A549, under 10 nM; in experiment [1] it was 12 nM; with HeLa, 20 nM.
